Reference: publication PMC7682989, “Large domain movements through the lipid bilayer mediate substrate release and inhibition of glutamate transporters” (eLife, 2020)
Residue numbers refer to the chain shown, from its start.

Assays:
GltPh [1] = target: T1, GltPh (Pyrococcus horikoshii, UniProt O59010, D37H/K40H/K125H/K132H/K223H/K264H/E368H); assay: cryo-EM structure; type: binding; settings: outward-facing state, MSP1E3 nanodiscs; 200 mM NaCl, 10 mM DL-TBOA, pH 7.4
T1 construct: gene PH1295; C-terminal His8 cut by thrombin; E. coli DH10B; homotrimer; DDM (ITC) or MSP1E3 nanodiscs (cryo-EM)
T1 sequence (O59010 1-425 D37H/K40H/K125H/K132H/K223H/K264H/E368H limits assumed): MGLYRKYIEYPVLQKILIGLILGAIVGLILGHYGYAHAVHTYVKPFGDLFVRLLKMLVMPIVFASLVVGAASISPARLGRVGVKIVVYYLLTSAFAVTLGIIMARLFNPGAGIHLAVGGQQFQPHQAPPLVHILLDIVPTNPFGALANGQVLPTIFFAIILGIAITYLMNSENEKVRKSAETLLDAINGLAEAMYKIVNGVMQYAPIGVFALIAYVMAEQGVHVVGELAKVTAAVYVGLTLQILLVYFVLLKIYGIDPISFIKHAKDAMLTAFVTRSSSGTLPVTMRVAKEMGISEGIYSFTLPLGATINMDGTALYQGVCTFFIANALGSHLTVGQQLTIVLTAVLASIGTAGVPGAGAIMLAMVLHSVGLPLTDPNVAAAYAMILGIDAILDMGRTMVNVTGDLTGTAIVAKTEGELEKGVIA

GltPh [2] = target: T2, GltPh (Pyrococcus horikoshii, UniProt O59010, D37H/K40H/K55C/K125H/K132H/K223H/K264H/C321A/A364C/E368H); assay: isothermal titration calorimetry; type: binding; settings: inward-facing, Hg2+-crosslinked K55C/A364C; DDM; 200 mM NaCl, pH 7.4, 15 °C; n 0.8; structure in nanodiscs 3.71 Å
T2 construct: gene PH1295; C-terminal His8 cut by thrombin; E. coli DH10B; homotrimer; DDM (ITC) or MSP1E3 nanodiscs (cryo-EM)
T2 sequence (O59010 1-425 D37H/K40H/K55C/K125H/K132H/K223H/K264H/C321A/A364C/E368H limits assumed): T1 sequence (O59010 1-425 D37H/K40H/K125H/K132H/K223H/K264H/E368H limits assumed) with K55C, C321A, A364C

[3] = target: GltPh, the fully functional seven-histidine mutant referred to as wildtype (WT) (UniProt O59010); assay: cryo-EM structure; single-particle cryo-EM of GltPh reconstituted into MSP1E3 nanodiscs (E. coli polar lipid extract : egg phosphatidylcholine 3:1); 20 mM Hepes/Tris pH 7.4, 200 mM NaCl with 1 mM L-asp, 10 mM DL-TBOA, 10 mM TFB-TBOA or NaCl only; 3D classes without symmetry, then C3 refinement
[4] = target: GltPh-K55C/C321A/A364C, cross-linked with HgCl2 (GltPh^IFS) (UniProt O59010); assay: as above
GltPh [5] = target: T2, GltPh; assay: cryo-EM structure; type: binding; settings: inward-facing, Hg2+-crosslinked K55C/A364C; MSP1E3 nanodiscs; 200 mM NaCl, 1 mM L-asp, pH 7.4

## NC(C(=O)O)C(OCc1ccccc1)C(=O)O (racemic) [DL-TBOA, DL-threo-β-benzyloxyaspartate]
GltPh [1]
  cryo-EM structure: wild type outward-facing GltPh in complex with TBOA (GltPh^OFS-TBOA)

## N[C@H](C(=O)O)[C@H](OCc1cccc(NC(=O)c2ccc(C(F)(F)F)cc2)c1)C(=O)O [TFB-TBOA, (2S,3S)−3-[3-[4-(trifluoromethyl)benzoylamino]benzyloxy]aspartate]
GltPh [2]
  Kd: 3.8 µM

## GltPh, the fully functional seven-histidine mutant referred to as wildtype (WT) (from UniProt O59010 1-417) (natural protein)
[3]
  stoichiometry N: 3

## GltPh-K55C/C321A/A364C, cross-linked with HgCl2 (GltPh^IFS) (from UniProt O59010 1-425) (natural protein)
[4]
  stoichiometry N: 3

## N[C@@H](CC(=O)O)C(=O)O [L-asp]
GltPh [5]
  cryo-EM structure: bound to L-asp (GltPh^IFS-Asp)
